Experimental findings from patent publication US20120065228A1, “COMPOSITIONS AND METHODS FOR TREATING, CONTROLLING, REDUCING, OR AMELIORATING OCULAR INFLAMMATORY WITH LOWER RISK OF INCREASED INTRAOCULAR PRESSURE” (priority 2007, published 2012) are described below.

For series [1], the system named is protein concentration in the aqueous humor. Nature of the series: Protein measurement in aqueous humor, rabbit paracentesis model. The class given is in vivo. Conditions: for Protein in aqueous humor, Mean / Protein in aqueous humor: second paracentesis; for Protein in aqueous humor: individual eyes. On the procedure:
Each rabbit was placed in a restraint device and tagged with the alphanumeric code. The formulations were instilled (50 μl) into the conjunctival sac of both eyes 180, 120, 90 and 30 min before the first paracentesis; then 15, 30, 90 min after the first paracentesis. To perform the first paracentesis the animals were anaesthetized by intravenous injection of 5 mg/kg Zoletil® (Virbac; 2.5 mg/kg tiletamine HCl and 2.5 mg/kg zolazepam HCl) and one drop of local anesthetic (Novesina®, Novartis) was administered to the eye. Anterior chamber paracentesis was performed with a 26 G needle attached to a tuberculin syringe; the needle was introduced into the anterior chamber through the cornea, taking care not to damage the tissues. Two hours after the ® first paracentesis, the animals were sacrificed with 0.4 ml Tanax® (Intervet International B.V.) and the second paracentesis was performed. About 100 μl of aqueous humor were removed at the second paracentesis. Aqueous humor was immediately split in four aliquots and stored at −80° C. until analysis. Then both eyes were enucleated and the iris-ciliary body was carefully excised, placed in polypropylene tubes, and stored at −80° C. until analysis.
For protein concentration determination in the aqueous humor we used the Protein Quantification Kit (Fluka; Cat. No. 77371; Lot. No. 1303129). Five microliters of aqueous humor were diluted to 100 μl with water. Twenty microliters of samples and of standards were load into a 96-well plate and recorded in a plate layout. Samples were treated following the assay procedure described in the kit. A microplate reader (GDV, Italy; model DV 990 B/V6) set at 670 nm was used for making the calibration and analyzing the samples.
Pupillary diameter, PGE2, protein, PMN, and MPO were expressed as mean±SEM. Statistical analysis was performed using one way ANOVA followed by a Newman-Keuls post hoc test. Clinical score was expressed as % of eyes and the statistical analysis was performed using Kruskal-Wallis followed by a Dunn post hoc test. P<0.05 was considered statistically significant in both cases. Prism 4 software (GraphPad Software, Inc.) was used for the analysis and graphs.

In series [2] the test system is myocilin protein in CM of monkey TM cells. Nature of the series: Myocilin protein in conditioned media of monkey TM cells (Western blot). Conditions: for Effect on myocilin concentrations in CM: 3 to 300 nM, second 48-hour treatment period. The class given is cell-based, rhesus monkeys (Macaca mulatta). On the procedure:
All animal procedures were in accordance with the ARVO (Association for Research in Vision and Ophthalmology) resolution on animal care. Eyes from freshly killed, healthy rhesus monkeys (Macaca mulatta), obtained from Lonza (Walkersville, Md.), were transported in CO2-independent medium on ice, and processed approximately 40 hours post-enucleation. Following removal of iris, lens, and the bulk of the ciliary body, opercula (an anatomical feature of monkey TM) were stripped from anterior segment quadrants. Using fine scissors, strips of TM were excised, and subdivided TM fragments were explanted to multiwell plates containing growth medium (described below) and incubated with Cytodex-3 gelatin-coated beads (Sigma Chemical Company, St. Louis, Mo.). The beads attach to the explants within hours and provide additional substrate area for out-migration of cells. Proliferating TM cells colonize additional beads and also “spill” onto the tissue culture plastic and form colonies. After several days, the original TM explants and beads were transferred to new wells, generating additional primary cultures. Subconfluent monolayers of cells on tissue culture plastic were passed from 12-well plates to 35- or 60-mm dishes using a Collagenase-Dispase (Roche Applied Bioscience, Indianapolis, Ind.). Second- or third-passage subcultures were finally harvested enzymatically as above, and the cells were counted and cryopreserved in liquid nitrogen.
For each study, up to nine TM cell strains, each derived from an individual monkey, were tested separately. Cells were thawed and seeded into 12- or 48-well clusters (Falcon, BD Biosciences; 150,000 and 30,000 cells/well, respectively) in proliferation medium. When cells were 75% to 90% confluent proliferation medium was replaced by a 5:4 mixture of HESFM and Dulbecco's MEM, respectively, supplemented with 10% FBS, with added taurine, ascorbic acid phosphate, glutathione, and antibiotic as for proliferation medium (above), and with 2.72 g/L glucose and 1.72 g/L fructose. At confluence, the medium was changed to Dulbecco's MEM, containing 10% FBS^40, ascorbic acid phosphate, antibiotic, 2.72 g/L glucose and 1.72 g/L fructose. Cells were maintained as stable, confluent monolayers in this latter medium for 4 to 7 days before experimental treatments commenced.
All treatments, including media for vehicle control samples, contained a final DMSO concentration of 0.1% (v/v) across the concentration ranges selected. Treatments lasted 96 hours, with one exchange of medium on the third treatment day. The final 48-hr conditioned media (“CM”) samples were collected in their entirety (0.5 ml), centrifuged briefly to remove particulates, aliquoted, and stored at −20° C. until thawed for analysis.
Undiluted CM was combined with denaturing 4× sample buffer containing 2% SDS, and samples were loaded at equivalent protein content onto 4-20% Tris-HCl polyacrylamide gels (BioRad, Hercules, Calif.). After electrophoresis, proteins underwent wet transfer to […] nitrocellulose (BioRad) for immunoblotting. The filters were blocked with 5% (w/v) nonfat dry milk (BioRad) in Tris-buffered saline plus 0.02% (v/v) Tween-20 (“TBST”; Tween-20 from Calbiochem, San Diego, Calif.), and incubated with a 1:2000 dilution (from 200 μg/ml) of goat anti-recombinant human myocilin antibody (R&D Systems, Minneapolis, Minn.) in blocking buffer, overnight at 4° C. […]
In general terms: In western blotting, separated proteins are transferred to a membrane and probed.

Several values for one entry are separate records, joined by “and”; a condition that tells them apart may be missing. Identical values can stand only once.

With `Cc1ccc2c(NCC(O)(CC(C)(C)c3cc(F)cc4c3OCC4)C(F)(F)F)cccc2n1` (stereo not drawn) [BOL-303242-X], the entries for the “Protein in aqueous humor, Mean” value in series [1] (0.1% topical formulation), in series [1] (0.5% topical formulation) and in series [1] (1% topical formulation) were 33.667 mg/mL, 28.844 mg/mL and 21.435 mg/mL, respectively. Also, the “Protein in aqueous humor” value in series [1] (0.1% topical formulation, listed as BOL) was 34.87 mg/mL and 34.41 mg/mL and 31.14 mg/mL and 22.82 mg/mL and 29.46 mg/mL and 31.69 mg/mL and 35.70 mg/mL and 49.25 mg/mL; in series [1] (0.5% topical formulation, listed as BOL), 33.98 mg/mL and 33.65 mg/mL and 19.99 mg/mL and 27.11 mg/mL and 19.72 mg/mL and 36.35 mg/mL and 27.71 mg/mL and 32.24 mg/mL; in series [1] (1% topical formulation, listed as BOL), 20.99 mg/mL and 21.48 mg/mL and 15.11 mg/mL and 20.28 mg/mL and 20.94 mg/mL and 21.89 mg/mL and 20.03 mg/mL and 30.76 mg/mL. Moreover, the “Protein in aqueous humor, statistical significance vs CTR” value in series [1] (0.5% topical formulation, p<0.05) is “statistical significance”; in series [1] (1% topical formulation, p<0.001) it was “statistical significance”. Besides, the “Levels of myocilin protein released by cultured monkey TM cells, compared to DEX” value in series [2] was “significantly lower levels”. The “Effect on myocilin concentrations in CM” value in series [2] is recorded as “increased myocilin concentrations in a dose-dependent manner”. In addition, the “Maximal efficacy for myocilin accumulation in CM, relative to DEX treatment” value in series [2] (computed across all nine TM cells strains) is “about 50%”. For the same molecule, in series [2] (monkey TM cells, compared with DEX at high doses), the “Activity on myocilin gene expression” value was “partial agonist activity”.

Turning to `C[C@@H]1C[C@H]2[C@@H]3CCC4=CC(=O)C=C[C@]4(C)[C@@]3(F)[C@@H](O)C[C@]2(C)[C@@]1(O)C(=O)CO` [dexamethasone, reference compound], the “Protein in aqueous humor, Mean” value in series [1] (0.1% topical formulation) stood at 33.457 mg/mL. For the same molecule, the “Protein in aqueous humor” value in series [1] (0.1% topical formulation, listed as Dex) is 31.31 mg/mL and 31.81 mg/mL and 35.95 mg/mL and 37.15 mg/mL and 32.12 mg/mL and 32.40 mg/mL. Moreover, the “Effect on myocilin concentrations in CM” value in series [2] was “increased myocilin concentrations in a dose-dependent manner”.
